Assay results published in patent publication US20240343699A1, “DERIVATIVES OF SUBSTITUTED MORPHOLINES AND USES THEREOF” (Supernus Pharmaceuticals, Inc., priority 2023, published 2024).
Structures can show the parent of a compound that is named as a salt.

What was measured:
behavioral signature = experiment: SmartCube phenotypic screening (class/subclass and DRFA similarity analysis); type: in vivo, male C57/B16 mice
Method: A study was conducted to evaluate the CNS-like efficacy of novel test compounds using the SmartCube® System.
Animals. Male C57/B16 mice from Taconic Laboratories (Germantown, NY) were used. Upon receipt, mice were group-housed in OPTIMice® ventilated cages with 4 mice per cage. Mice were acclimated to the colony room for at least one week prior to test, and subsequently tested at approximately 8-9 weeks of age. All animals were examined, handled, and weighed prior to initiation of the study to assure adequate health and suitability and to minimize nonspecific stress associated with manipulation. During the course of the study, 12/12 light/dark cycles were maintained. The room temperature was 20-23° C. with a relative humidity maintained between 30-70%. Chow and water were provided ad libitum for the duration of the study.
Test compounds. All compounds were administered orally at a dose volume of 10 mL/kg, 20 minutes prior to testing. Formulations were prepared fresh on day of testing and dosing was completed within one hour of formulation. Compounds were prepared according to the table below. Twelve mice were used in each treatment group:
SmartCube®. The SmartCube® system is designed to and can successfully measure numerous spontaneous behaviors and response to challenges in the same testing environment. The hardware includes force sensors and a number of aversive stimuli to elicit behavior. Three high-resolution video cameras provide constant 3D view of the mouse in the SmartCube® apparatus (SC) throughout the entire testing period. During the 45-minute test session the mice are exposed to a sequence of challenges. The cubes are cleaned between each run.
Digital videos of the subjects were processed through computer segmentation algorithms to fit geometrical models to each mouse frame image. The resulting fitted parameters were then analyzed using behavioral classifier algorithms to extract behavioral states, such as rearing, locomotion, and immobility. The data obtained in this way was used to define a drug signature for PGI's known reference compounds and establish a therapeutic class signature against which a test sample can be compared.
The data mining effort utilizes several analytical methods including Bayesian probabilistic density models and Decision trees. The algorithms consider ˜2,600 measures including frequency and duration of behavioral states such as grooming, rearing, etc., and many other features obtained during the test session.
Two major types of analyses are routinely conducted: Class and subclass.
Each reference drug was tested at multiple doses appropriate for that drug in mice.
Multiple analyses of the data were performed to quantitatively produce independent predictions of drug class, and drug subclass. The behavioral signatures of the test drugs were evaluated using these classifiers to predict potential therapeutic utility.
The results for the class and subclass analyses are presented as standardized bar charts with percentages that sum to 100 for each dose.
Similarity Analysis Using “Clouds Framework”. The outcome from SmartCube® is a large set of features (behavioral parameters) that can be used for various analyses. […] Therefore, we formed statistically independent combinations of the original features (further referred to as de-correlated features). Each de-correlated feature extracted information from the whole cluster of the original features, so the new feature space would have lower dimensionality. Next, we applied a proprietary feature ranking algorithm to score each feature for its discrimination power (ability to separate the two groups, e.g. vehicle from treatment). Ranking is an important part of our analyses because it weighs each feature change by its relevance. We applied a feature ranking algorithm, derived from support vector in the support vector machine learning method, to rank each feature.

prepulse inhibition = experiment: Prepulse inhibition (PPI) of the auditory startle response, apomorphine-impairment model; settings: for % PPI (mean ± SEM): averaged across prepulse levels
Method: Four standard startle chambers (San Diego Instruments, San Diego, CA) were used. […] The tube is mounted on a plastic frame, under which a piezoelectric accelerometer is mounted, which records and transduces the motion of the tube. Three days before drug testing the experimental subjects were each placed in one of the startle test chambers for a period of 10 minutes (without any startle stimuli) as an initial period of acclimation to the apparatus. Two days before drug testing the animals were again placed in the test chamber and then exposed to 12 startle stimuli and to each prepulse level 3 times (see below). This procedure was done to reduce the highly variable responses to the initial exposures to the startle stimuli as well as to ensure that the prepulse stimuli (alone) had no significant effect on the startle response. One day before drug testing, a full 60 trial PPI test session (as subsequently described for the drug testing experiments, see below) was conducted for all experimental subjects.
On the day of drug testing the rats were transported to the startle chamber room and left undisturbed for at least 30 min. […] After this period, the rats received 12 startle trials, 12 no-stimulus trials, and 12 trials of each of the prepulse/startle trials (see below) for a total of 60 trials. The intertrial interval ranged from 10 to 30 s, and the total session lasted about 25-30 min. The startle trials consisted of single 120 dB white noise bursts lasting 20 ms.
The prepulse inhibition trials consisted of a prepulse (20 ms burst of white noise with intensities of 75, 80, or 85 dB) followed, 100 ms later, by a startle stimulus (120 dB, 20 ms white noise). During the no-stimulus trial, no startle noise was presented, but the movement of the rat was recorded. This represented a control trial for detecting differences in overall activity. The 60 different trials were presented pseudo-randomly, ensuring that each trial was presented 12 times and that no two consecutive trials were identical. The resulting movement of the rat in the startle chamber was measured during 100 ms after startle stimulus onset (sampling frequency 1 kHz), rectified, amplified, and fed into a computer that determined the maximal response that occurred during the 100-ms period. Basal startle amplitude was determined as the mean amplitude of the 12 startle trials. Prepulse inhibition was calculated according to the formula 100−100%×(PPx/P120), in which PPx is the mean of the 12 prepulse inhibition trials (i.e., for each individual prepulse level), and p120 is the basal startle amplitude. The average level of PPI was also calculated (average of the responses to pp75, pp80, or pp85) and analyzed separately.

sleep/wake and cataplexy = type: in vivo, male DTA mice; settings: amphetamine 2 mg/kg i.p.
cognitive flexibility = experiment: Operant set-shifting test against PCP; type: in vivo, male Wistar rats
Method: This assay serves as a model of impaired executive function associated with neuropsychiatric disorders like schizophrenia. The aim of this study was to evaluate COMPOUND C to reverse deficits observed with PCP on cognitive flexibility using the operant set-shifting test in the rat.
Substances & Formulation.
Doses were prepared by separate weighing (W/V). COMPOUND C formulations were prepared fresh on each dosing day and dosing was completed within 8 hours of formulation. Phencyclidine (PCP) hydrochloride, white powder, was dissolved in physiological saline by magnetic stirring, fresh each day of dosing.
Test System. 78 male Wistar rats were supplied for this study. • 72 rats, 8-9 weeks old, weighing 218-299 g at the beginning of the visual discrimination were submitted to the entire behavioral testing and assigned to match groups based on their performance during the second visual discrimination session. • 6 spare rats were submitted to lever pressing, side bias and visual discrimination but were discarded for the testing period (set-shift and reversal)
The experimental protocol which detects effects on behavioral flexibility follows that described by Floresco et al. (Behav. Brain Res., 190, 85-96 (2008)).
Apparatus. The apparatus consists of standard Med Associates ENV-008 Skinner boxes (30×25×30 cm) fitted with a house light, two retractable levers and a food pellet dispenser. The levers are located on either side of the food receptacle connected to the pellet dispenser. A light emitting diode stimulus light is positioned centrally above each lever and served as a stimulus for visual-cue discrimination learning.
Acquisition of lever-pressing (training). The aim of this phase was to train animals to lever-press to receive a food pellet reward.
Side bias. On the last day of training, the side bias for the rat was determined. The session was similar to the lever pressing session except that both levers were inserted into the chamber together (i.e. 90 levers presentations every 20 seconds). Again, the stimulus lights above each of the levers were not illuminated during this training session. On the first levers presentation, a food pellet was delivered after responding on either lever. Upon subsequent insertion of the levers, food was delivered only if the rat responded on the lever opposite to the one chosen initially. If the rat chose the same lever to the initial choice, no food was delivered. This continued until the rat chose the lever opposite to the one chosen initially. After choosing both levers, a new trial commenced. Thus, one trial for the side bias procedure consisted of responded on both levers. The sessions terminated after 90 levers presentations or after completion of 21 trials.
Visual-cue discrimination learning. After determining the side bias, animals were submitted to visual-cue discrimination learning.
A session began with both levers retracted and the chamber in darkness (the inter-trial state). Every 20 seconds, a trial began with illumination of one of the stimulus lights above one of the levers. 3 seconds later, the house light was illuminated, and both levers were inserted into the chamber. […] After food delivery, the house light remained on for another 4 seconds, after which the chamber returned to the inter-trial state. If the rat responded on the other lever (incorrect response), both levers retracted immediately without food delivery and the chamber reverted to the inter-trial state.

[1] = PK of S-viloxazine after single PO administration; settings: for Tmax: 40 mg/kg
Method: Study Design. […] Food was returned 2 hours post-dose.
Test Article Formulation.

anxiety-like behavior = experiment: Elevated plus maze (EPM); type: in vivo, male Wistar rats; settings: for Closed arm entries / Closed arm returns / Head dips in open arms / Stretch-attend postures / Time in closed arms / Time in open arms / Total arm entries: mean; for % Time in open arms / Open Arm Entries / Total distance travelled: mean ± S.E.M.
[2] = DRFA dose by dose, maximum (COMPOUND A: 90 and 120 mg/kg)
[3] = vehicle + apomorphine 0.5 mg/kg s.c.
[4] = haloperidol 0.3 mg/kg + apomorphine
[5] = PCP 2 mg/kg s.c., first reversal session
[6] = PCP 2 mg/kg s.c., first set-shift session
[7] = PCP 2 mg/kg s.c., first set-shift to response discrimination session
[8] = S(−)-VLX in plasma, 40 mg/kg PO, fasted rats
[9] = 15 mg/kg PO 20 min prior to EPM
[10] = 30 mg/kg PO 20 min prior to EPM
[11] = 60 mg/kg PO 20 min prior to EPM
[12] = Study 1, 0.5 mg/kg i.p. 30 min before testing
[13] = Study 2, 0.5 mg/kg i.p. 30 min before testing

SMILES: CCOc1ccccc1OCC1CNCCO1 (racemic) [Viloxazine, (R,S)-2-[(2-ethoxyphenoxy)methyl]morpholine, reference compound]
- behavioral activity (class/subclass analysis) (behavioral signature; 15 mg/kg PO): low behavioral activity
- behavioral activity (class/subclass analysis) (behavioral signature; 30 mg/kg PO): moderate activity
- behavioral activity (class/subclass analysis) (behavioral signature; 60 and 90 mg/kg PO): high activity
- proximity to donepezil (behavioral signature; [2]): around 100%
- proximity to thioperamide (behavioral signature; [2]): around 100%
- proximity to memantine (behavioral signature; DRFA dose by dose, maximum reached): 57%

SMILES: CN1CCc2cccc3c2[C@H]1Cc1ccc(O)c(O)c1-3 [APO, apomorphine, reference compound]
- effect on PPI compared to vehicle (prepulse inhibition; apomorphine 0.5 mg/kg s.c., all three prepulse levels): significantly (p<0.05) diminished PPI
- Acoustic Startle (AU) (mean ± SEM) (prepulse inhibition; [3]): 1546.1 ± 260.5 AU
- % PPI (mean ± SEM) (prepulse inhibition; [3]): 33.4 ± 5.5 %

SMILES: C[C@H](N)Cc1ccccc1 [Amphetamine, d-Amphetamine sulfate, reference compound]
- LMA (sleep/wake and cataplexy): overall increase in LMA
- Levels of C (sleep/wake and cataplexy): generally unaffected
- W and NREM time (sleep/wake and cataplexy): increased W and decreased NREM
- latency to sleep onset (sleep/wake and cataplexy): increased latency to the onset of both NREM and REM sleep

SMILES: O=C(CCCN1CCC(O)(c2ccc(Cl)cc2)CC1)c1ccc(F)cc1 [HAL, haloperidol, reference compound]
- Acoustic Startle (AU) (mean ± SEM) (prepulse inhibition; [4]): 1774.3 ± 770.6 AU
- % PPI (mean ± SEM) (prepulse inhibition; [4]): 55.2 ± 6.3 ^+ %
- effect on apomorphine-induced PPI deficit (prepulse inhibition; haloperidol 0.3 mg/kg, 75, 80 and 85 dB prepulse levels): significantly antagonized the effects of apomorphine on PPI

SMILES: c1ccc(C2(N3CCCCC3)CCCCC2)cc1 [PCP, Phencyclidine (PCP) hydrochloride]
- number of errors vs saline controls (cognitive flexibility; [5]): +66%
- number of trials to reach the criterion vs saline controls (cognitive flexibility; [5]): +35%
- perseverative errors (average) (cognitive flexibility; [6]): 35.8
- total errors (average) (cognitive flexibility; [6]): 37.8
- number of errors vs saline controls (cognitive flexibility; [7]): +47%
- number of trials to reach the criterion vs saline controls (cognitive flexibility; [7]): +45%
- number of trials vs saline controls (cognitive flexibility; PCP, second session (drug-free)): +31%

SMILES: CCOc1ccccc1OC[C@@H]1CNCCO1 [S(−)-VLX]
- AUC0-last [1, 8]: 3594 ± 1641 ng·h/mL
- AUC(0-inf) [1, 8]: 3600 ng·h/mL
- AUCExtra [1, 8]: 0.20%
- AUMCExtra [1, 8]: 1.64%
- Cmax [1, 8]: 2973 ± 1201 ng/mL
- MRT0-inf [1, 8]: 1.12 h
- MRT0-last [1, 8]: 1.10 ± 0.106 h
- T1/2 [1, 8]: 58.2 ± 16.3 min
- Tlast [1, 8]: 8.00 h
- Tmax [1, 8]: 25.2 min
- Tmax ([1]; S(−)-VLX in plasma, 40 mg/kg PO, fasted rats, listed as S-Viloxazine): 25 ± 8.64 min
- enantiomer R(+) VLX in plasma ([1]; after S-Viloxazine 40 mg/kg PO, LLOQ 1.5 ng/mL): not detectable at any time points
- Closed arm entries (anxiety-like behavior; [9]): 7.13
- Closed arm returns (anxiety-like behavior; [9]): 2.13
- Head dips in open arms (anxiety-like behavior; [9]): 1.38
- Stretch-attend postures (anxiety-like behavior; [9]): 17.13
- Time in closed arms (anxiety-like behavior; [9]): 289.33 s
- Time in open arms (anxiety-like behavior; [9]): 1.08 s
- Total arm entries (anxiety-like behavior; [9]): 7.25
- % Time in open arms (anxiety-like behavior; [9]): 0.36 ± 0.36%
- Open Arm Entries (anxiety-like behavior; [9]): 0.13 ± 0.13
- Total distance travelled (anxiety-like behavior; [9]): 1334.42 ± 90.911 cm
- Closed arm entries (anxiety-like behavior; [10]): 7.88
- Closed arm returns (anxiety-like behavior; [10]): 2.75
- Head dips in open arms (anxiety-like behavior; [10]): 3.38
- Stretch-attend postures (anxiety-like behavior; [10]): 19.38
- Time in closed arms (anxiety-like behavior; [10]): 277.60 s
- Time in open arms (anxiety-like behavior; [10]): 6.11 s
- Total arm entries (anxiety-like behavior; [10]): 8.25
- % Time in open arms (anxiety-like behavior; [10]): 2.04 ± 1.60%
- Open Arm Entries (anxiety-like behavior; [10]): 0.38 ± 0.26
- Total distance travelled (anxiety-like behavior; [10]): 1334.22 ± 68.23 cm
- Closed arm entries (anxiety-like behavior; [11]): 6.00
- Closed arm returns (anxiety-like behavior; [11]): 3.50
- Head dips in open arms (anxiety-like behavior; [11]): 2.88
- Stretch-attend postures (anxiety-like behavior; [11]): 16.38
- Time in closed arms (anxiety-like behavior; [11]): 279.11 s
- Time in open arms (anxiety-like behavior; [11]): 6.43 s
- Total arm entries (anxiety-like behavior; [11]): 6.50
- % Time in open arms (anxiety-like behavior; [11]): 2.14 ± 1.52%
- Open Arm Entries (anxiety-like behavior; [11]): 0.50 ± 0.38
- Total distance travelled (anxiety-like behavior; [11]): 1350.11 ± 96.17 cm
- anxiolytic activity (anxiety-like behavior; S-VLX 15, 30, 60 mg/kg p.o.): None of the doses of S-Viloxazine were associated with anxiolytic activity
- total distance traveled vs vehicle (anxiety-like behavior; S-VLX 15, 30, and 60 mg/kg p.o.): travelled a significantly shorter distance

SMILES: Cc1ncc2n1-c1ccc(Cl)cc1C(c1ccccc1F)=NC2 [midazolam]
- Closed arm entries (anxiety-like behavior; [12]): 14.13
- Closed arm returns (anxiety-like behavior; [12]): 1.38
- Head dips in open arms (anxiety-like behavior; [12]): 7.00
- Stretch-attend postures (anxiety-like behavior; [12]): 18.88
- Time in closed arms (anxiety-like behavior; [12]): 247.54 s
- Time in open arms (anxiety-like behavior; [12]): 18.47 s
- Total arm entries (anxiety-like behavior; [12]): 16.75
- % Time in open arms (anxiety-like behavior; [12]): 6.16 ± 1.96 %
- Open Arm Entries (anxiety-like behavior; [12]): 2.63 ± 0.78
- Total distance travelled (anxiety-like behavior; [12]): 2064.55 ± 111.02 cm
- Closed arm entries (anxiety-like behavior; [13]): 13.89
- Closed arm returns (anxiety-like behavior; [13]): 1.44
- Head dips in open arms (anxiety-like behavior; [13]): 5.67
- Stretch-attend postures (anxiety-like behavior; [13]): 20.33
- Time in closed arms (anxiety-like behavior; [13]): 259.11 s
- Time in open arms (anxiety-like behavior; [13]): 18.38 s
- Total arm entries (anxiety-like behavior; [13]): 16.22
- % Time in open arms (anxiety-like behavior; [13]): 6.13 ± 1.80 %
- Open Arm Entries (anxiety-like behavior; [13]): 2.33 ± 0.60
- Total distance travelled (anxiety-like behavior; [13]): 2052.96 ± 791.05 cm
- anxiolytic activity (anxiety-like behavior; midazolam 0.5 mg/kg i.p., both studies): exhibited anxiolytic activity
